Assay: gradient 5% acetonitrile 3 min, to 50% in 2 min, to 85% in 15 min, held 3 min, 100 µL/min
Conditions: column: Zorbax Extend-C18 2.1 x 50 mm; eluents: water / acetonitrile, 0.1% formic acid
How it was run: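 Pure standards were analyzed in mixtures of ~100 molecules using HPLC coupled to a quadrupole time-of-flight mass spectrometer, in both positive and negative ionization mode. Separation used a Zorbax Extend-C18 column (2.1 × 50 mm, 1.8 μm) at 100 μL/min, with water and acetonitrile each containing 0.1% formic acid. Dead and dwell volumes were 40 μL and 900 μL, and data were collected over 3 months. Retention time was read from computationally picked adduct peaks, each inspected manually.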

Compound	RP-LC retention time [s]
CCn1nccc1-c1cccc(-c2noc(C3CC(=O)N(c4ccc(C)cc4)C3)n2)c1 (configuration not stated)	1010
Cc1ccc(CN2CCN(CC(=O)Nc3ccncc3)C(=O)C2=O)cc1	588
O=C(NCc1ccccc1Cl)c1nc(Cn2c(=O)oc3ccccc32)no1	946
CCOC(=O)c1nc(Nc2cccc(C)c2)c2ccccc2n1	890
O=C(Nc1ccc(F)cc1F)C1CCCN(S(=O)(=O)Cc2ccc(F)cc2)C1 (configuration not stated)	976
O=C(CCc1c(-c2ccccc2)nc2ccccn12)NCc1cccc(Cl)c1	681
Cn1ccc2cc(CCC(=O)NCc3ccncc3)ccc21	596
Cc1cc(=O)n(CC(=O)Nc2ccc(Br)cc2F)c(N2CCN(c3ccccc3)CC2)n1	978
COc1ccc(-c2csc(NC(=O)COc3ccc(Cl)c(Cl)c3)n2)cc1	1200
CCC(C)NC(=O)c1cnn(-c2ccc(-c3nc(C)no3)cn2)c1C (configuration not stated)	821
O=C(c1ccccc1OCC1CCCNC1)N1CCCC1 (configuration not stated)	596
O=C(O)c1cc(Nc2ccc(F)cc2)c2cccc(Cl)c2n1	624
O=C(Cc1ccc(Cl)cc1)NCC(=O)N1CCCc2ccccc21	862
CCOc1ccc(-c2cc3c(=O)n(Cc4nc(-c5ccc(Cl)c(F)c5)no4)ncn3n2)cc1	1270
COc1cccc(C(=O)NC2CCN(c3cc(-c4cccs4)[nH]n3)C2)c1 (configuration not stated)	700
Cn1c(N2CCN(S(=O)(=O)c3cc(F)ccc3F)CC2)nc2ccccc21	601
C[C@H]1CN(C(=O)c2nn(C)c3ccccc23)C[C@@H]1c1nc(-c2cccnc2)no1	862
Cc1cccc(-c2noc(-c3ccc(N4CCN(C5CCCCC5)CC4)nc3)n2)c1	831
CSCc1csc(NC(=O)COc2ccc(Cl)cc2)n1	883
COc1ccc(Cl)cc1NC(=O)c1n[nH]c2ccccc12	1010
Cc1ccc2c(c1)N(Cc1nc(-c3ccc4c(c3)OCO4)no1)C(=O)CO2	1020
Cc1ccc(NC(=O)N2CCCC(Cn3c(C4CC4)nc4cccnc43)C2)c(C)c1 (configuration not stated)	694

Compound	RP-LC retention time [s]
CCOC(=O)c1ccccc1NC(=O)c1nc(SC)ncc1Cl	1240
O=c1ccc(-c2ccccc2)nn1CCc1nc(-c2cccc(Cl)c2)no1	1030
CCN1C(=O)c2cc(C(=O)Nc3ccc(F)cc3)nn2CC1(C)C(=O)NC1CCCC1 (configuration not stated)	813
Cc1ccc2oc(C(=O)N3CCC(CCN4CCCC4)CC3)cc(=O)c2c1	603
CCc1noc(NC(C)=O)c1-c1ccc(C)c(S(=O)(=O)N2CCN(c3ccccc3F)CC2)c1	723
COc1cc([C@H]2c3cc4c(cc3[C@@H](O)[C@H](CO)[C@H]2C(=O)Nc2cnccn2)OCO4)cc(OC)c1OC	626
Cc1ccc(-c2nc(-c3ccc4c(c3)nnn4CCN(C)C)no2)cc1F	708
COc1ccccc1N1CCN(CCN(C(=O)c2ccc(F)cc2)c2ccccn2)CC1	792
CC(C)C(=O)Nc1cnc(-c2ccc(F)cc2)nc1	861
CCC(CN1CCOCC1)Nc1nc(-c2ccc(OC)cc2)nc2ccccc12 (configuration not stated)	570
COCC(=O)Nc1ccc(-c2nc(-c3ccc(C)cc3C)co2)cc1	1110
COc1ccc(Cc2noc(Cc3nnc(-c4ccc(Cl)cc4)o3)n2)cc1	1010
O=C(NCc1cccs1)c1cccn1Cc1noc(-c2ccccc2)n1	972
COCCN1C(=O)CCc2cc(NS(=O)(=O)c3cc(OC)ccc3OC)ccc21	724
Cc1noc(C)c1S(=O)(=O)N1CCC(n2c(C)cnc2-c2ccccc2)CC1	682
CCOC(=O)c1nn(-c2ccc(C)cc2)c(=O)cc1NC(=O)c1cc(Cl)ccc1OC	1140
CCOCC(=O)N1CC(c2nc(-c3ccccc3)no2)C2(CCOCC2)C1 (configuration not stated)	766
COCc1ncc(C)n1CC1CN(C(=O)c2cccn2C)C1	585
CCOc1ccc(S(=O)(=O)N2CC=C(c3cn(C(C)C)c4ncccc34)CC2)cc1	645
Cc1cccc(NC(=O)C2(C)Oc3cccnc3N(C)C2=O)c1C (configuration not stated)	808
CCOc1ccccc1NS(=O)(=O)c1cc(-c2c(CC)noc2NC(C)=O)ccc1C	846
OC[C@@H]1CNC[C@H]1C1CCN(Cc2ccc(Cl)c(F)c2)CC1	542

Compound	RP-LC retention time [s]
Cc1ccc(-c2ncccc2CNS(=O)(=O)Cc2cc(F)cc(F)c2)cc1	739
O=C(Nc1ccc(F)cc1F)C1CCN(S(=O)(=O)c2cc(-c3noc(C4CC4)n3)cs2)CC1	997
CC(Sc1nnnn1-c1ccccc1)C(=O)Nc1ccc(N2CCN(C)CC2)cc1 (configuration not stated)	580
Fc1ccccc1Cc1nc(-c2cccc(-c3ccn[nH]3)c2)no1	939
CCc1ccc(NC(=O)N2CCc3c(c(-c4nc(C5CC5)no4)nn3C)C2)cc1	934
COc1ccc(-c2c(C)noc2NC(C)=O)cc1S(=O)(=O)Nc1ccc(F)c(Cl)c1	803
CCOc1ccc(S(=O)(=O)N2CCC(C(=O)N(CC)CC)CC2)cc1C	934
Cc1ccc(-c2nc3ccccn3c2NC(=O)Nc2cccc(C)c2)cc1	716
COc1nn(C)cc1C(=O)N1CCCC(C(=O)NCc2ccccc2OC(F)(F)F)C1 (configuration not stated)	705
Cc1cccc(NC(=O)N2CCN(c3ccc(=O)n(-c4ccccc4)n3)CC2)c1	776
CC(C)c1noc(C2(NC(=O)c3ccc(C(F)(F)F)cc3)CCCCC2)n1	1130
Cc1ccc(NC(=O)N2CCc3nc(-c4ccc(F)cc4)ncc3C2)c(Cl)c1	1080
Cc1ccc(-n2c(=O)n(CC(=O)Nc3cccc(C)c3C)c3cccnc32)cc1	907
CC(C)CC(=O)Nc1ccc(-c2nc(-c3ccc(F)cc3)no2)cc1	1170
COc1cc(OC)c(NC(=O)CN2CCC(C(=O)N3CC(C)CC(C)C3)CC2)cc1Cl (configuration not stated)	730
O=C(NCCn1nc(-c2ccc(F)cc2)ccc1=O)Nc1cccs1	692
CCN1CCN(Cc2ccc(-c3cc4c(N[C@H](C)c5ccccc5)ncnc4[nH]3)cc2)CC1	628
COc1ccc(-c2noc(CN3N=NC4C(=O)N(c5ccc(OC)c(OC)c5)C(=O)C43)n2)cc1OC (configuration not stated)	798
O=C(C1CCN(c2nc(-c3ccc(Cl)cc3)no2)CC1)N1CCOCC1	874
CCc1nnc2ccc(-c3noc(-c4cc(Cl)ccc4F)n3)cn12	1010
Cc1sc2ccn(CC(C)C)c(=O)c2c1C(=O)NCCN1CCCCC1	639
Cc1ccc(Nc2c(-c3cccc(Br)c3)nc3ccc(Cl)cn23)cc1	1130

Compound	RP-LC retention time [s]
Cc1c(-c2cc(NS(=O)(=O)c3ccccc3Cl)n(C)n2)sc2ccc(Cl)cc12	1160
Cc1nn(-c2ccccc2)c(C)c1S(=O)(=O)N1CCC(C(=O)Nc2ccc3c(c2)OCO3)CC1	905
Cc1cccc(N2CCN(c3cc(C)nc4c(-c5ccccc5)cnn34)CC2)n1	738
O=C(Nc1ccccc1F)C(=O)c1cn(CC(=O)N2CCOCC2)c2ccccc12	906
COc1ccccc1CC(=O)Nc1ccc(-c2nc(Cn3cc(C)cn3)c(C)o2)cc1	909
CCN1CCn2cc(S(=O)(=O)N3CCCc4ccccc43)cc2C1=O	800
CCCC(=O)Nc1ccc(-n2cnc(C(=O)NCC)c2)nc1	634
O=C(NCc1cccs1)C1CCCN(S(=O)(=O)c2cc(-c3noc(C4CCC4)n3)cs2)C1 (configuration not stated)	1070
COCCCNC(=O)c1nccnc1NC(=O)c1ccc(C)cc1	791
O=c1n(Cc2c(F)cccc2Cl)nc2ccc(S(=O)(=O)N3CCOCC3)cn12	821
O=S(=O)(c1ccc2nc(N3CCN(c4ccc(F)cc4)CC3)ccc2c1)N1CCCC1	951
CCN1C(=O)c2cccnc2Sc2cc(NC(=O)c3ccc4c(c3)OCO4)ccc21	802
COc1ccccc1-c1noc(CCc2nnc3ccc(N4CCN(Cc5ccccc5)CC4)nn23)n1	616
Cc1nc(-c2ccc(N3CCN(C(=O)Nc4ccc(F)cc4)CC3)cc2)no1	787
CC(C)NC(=O)N1CCC2(CC1)CCC(O)(CN1CCc3ccccc31)CC2	882
COc1ccc2cc(C(=O)N3CCC(CC(=O)NC4CC4)CC3)[nH]c2c1	690
COc1ccc(NC(=O)Cn2ncc3c(N4CCN(c5ccccn5)CC4)ncnc32)cc1Cl	642
CCc1nccn1Cc1noc(-c2ccccc2)n1	634
CCC(CC)C(=O)Nc1ccc2nc(N3CCN(CC)CC3)cc(C)c2c1	593
NC(=O)C1CCN(C(=O)c2cc(-n3cnnn3)ccc2Cl)CC1	592
CCCN1C(=O)COc2ccc(-c3noc(-c4cccc(NC(C)=O)c4)n3)cc21	925

Source: the METLIN SMRT retention time set (Domingo-Almenara et al. 2019)
